Paper PMC3473092 (Science (New York, N.Y.), 2011)
“Also recorded” adds a separate entry of the source. Read-outs that look alike come from different tables or passages of the source.

Columns and labels:
HepG2-A16-CD81EGFP cells = experiment: HepG2-A16-CD81EGFP inhibition; type: cell-based; conditions: Homo sapiens, HepG2, read-out: HepG2 inhibition IC50
P. yoelii EEF = experiment: P. yoelii liver-stage; type: cell-based, Plasmodium yoelii; conditions: for activity against EEFs (in words): P. yoelii liver assay; for IC50: Plasmodium yoelii, 48 h, read-out: P. yoelii EEF IC50; for efficacy when compound added 15 and 27 hours post-invasion: end-point 51 hpi, Fig. 2C; for Median parasite area: ±SD, DMSO control 160 to 180 μm^2, smallest size detected 9 μm^2
[1] = system: P. falciparum W2 parasites; experiment: Blood-stage SYBR green assay, P. falciparum W2; type: cell-based; conditions: Plasmodium falciparum, W2, read-out: Blood IC50
P. berghei sporozoites = experiment: Rodent malaria model of causal prophylactic treatment; type: in vivo, Plasmodium berghei; conditions: for blood stage parasitemia in later blood smear examinations / in vivo bioluminescence signal of developing parasite: GNF179 15 mg/kg, atovaquone 2.5 mg/kg, treated at 6 hpi, Fig. 2D
Plasmodium berghei [2] = experiment: P. berghei blood-stage mouse model, single oral dose; type: in vivo; conditions: for average survival times: mice infected with P. berghei, single oral dose at 100 mg/kg
Plasmodium berghei [3] = conditions: 100 mg/kg oral dose; cited from earlier work
[4] = system: P. falciparum blood stages; experiment: P. falciparum blood stage cultures in vitro; type: cell-based, Plasmodium falciparum; conditions: text b23, strain not given
[5] = mouse
[6] = system: strains having mutations making them resistant to atovaquone and pyrimethamine; experiment: Cross-resistance with strains resistant to liver-stage drugs; type: cell-based; conditions: Table S6
[7] = system: parasite protein biosynthesis; experiment: Parasite protein biosynthesis inhibition; type: cell-based; conditions: Fig. S4
[8] = mouse, in vivo, po
[9] = 15 p.o. mg/kg, 1–3 hours prior to sporozoite injection
[10] = 30 p.o. mg/kg, 1–3 hours prior to sporozoite injection
[11] = 5 p.o. mg/kg, 1–3 hours prior to sporozoite injection
[12] = 15 p.o. mg/kg, six hours after infection

In the case of `C[C@@H]1CC[C@H]2[C@@H](C)C(=O)O[C@@H]3O[C@@]4(C)CC[C@@H]1[C@]32OO4` [Artemisinin], the IC50 (HepG2-A16-CD81EGFP cells) is reported as over 10000 nM, the “activity against EEFs (in words)” value (P. yoelii EEF) is reported as “inactive” and the IC50 (P. yoelii EEF) is reported as over 10000 nM. The IC50 [1] was 3.3 ± 0.4 nM.

In the case of `O=C1C(O)=C([C@H]2CC[C@H](c3ccc(Cl)cc3)CC2)C(=O)c2ccccc21` [Atovaquone], the IC50 (HepG2-A16-CD81EGFP cells) is reported as 9500 ± 2500 nM, the “Average Survival (%)” value (P. berghei sporozoites; 2.5 p.o. mg/kg, 1–3 hours prior to sporozoite injection) is reported as 100% and the “Average Survival (%)” value (P. berghei sporozoites; 2.5 p.o. mg/kg, six hours after infection) is reported as 100%. The “blood stage parasitemia in later blood smear examinations” value (P. berghei sporozoites) was “no blood stage parasitemia was detected”, the “in vivo bioluminescence signal of developing parasite” value (P. berghei sporozoites) was “No luminescence signal was detected” and the “efficacy when compound added 15 and 27 hours post-invasion” value (“efficacy” for short) (P. yoelii EEF; 1 μM) was “remained active later in EEF development”. For the same compound, the Median parasite area (P. yoelii EEF; 1 μM) was 18.2±1.0 μm^2, the Median parasite area (P. yoelii EEF; 10 μM) was 18.6±1.0 μm^2 and the “activity against EEFs (in words)” value (P. yoelii EEF) was “confirmed as active”. The IC50 (P. yoelii EEF) was 9.4 ± 15 nM and the IC50 [1] was 2.2 ± 0.4 nM.

Compound `COc1ccc2cc3[n+](cc2c1OC)CCc1cc2c(cc1-3)OCO2` [Berberine] has an IC50 (HepG2-A16-CD81EGFP cells) of 2600 ± 500 nM, a Median parasite area (P. yoelii EEF; 1 μM) of 46.4±7.0 μm^2 and a Median parasite area (P. yoelii EEF; 10 μM) of 22.4±2.3 μm^2. The “activity against EEFs (in words)” value (P. yoelii EEF) was “confirmed as active”, the IC50 (P. yoelii EEF) was 224 ± 152 nM and the IC50 [1] was 117 ± 9 nM.

`CCN(CC)CCCC(C)Nc1ccnc2cc(Cl)ccc12` (stereo not shown) [Chloroquine] showed an IC50 (HepG2-A16-CD81EGFP cells) of 1600 ± 300 nM, a Median parasite area (P. yoelii EEF; 1 μM) of 65.4±9.5 μm^2 and a Median parasite area (P. yoelii EEF; 10 μM) of under 9 μm^2. It also gave an IC50 (P. yoelii EEF) of 1650 nM, an average survival times (Plasmodium berghei [2]) of 12.5 days and an IC50 [1] of 84 ± 3 nM.

Work on `C[C@@H]1C[C@@H]([C@H](O)CC2CC(=O)NC(=O)C2)C(=O)[C@@H](C)C1` [Cycloheximide] yielded an IC50 (HepG2-A16-CD81EGFP cells) of 220 ± 100 nM, a Median parasite area (P. yoelii EEF; 1 μM) of under 9 μm^2 and a Median parasite area (P. yoelii EEF; 10 μM) of under 9 μm^2. For the same compound, the IC50 [1] was 366 ± 69 nM.

`CCCCCCCCCCOc1cc2c(O)c(C(=O)OCC)cnc2cc1OCC` [Decoquinate] gave an IC50 (HepG2-A16-CD81EGFP cells) of over 10000 nM, a Median parasite area (P. yoelii EEF; 1 μM) of 17.7±0.3 μm^2 and a Median parasite area (P. yoelii EEF; 10 μM) of 18.8±4.7 μm^2. The IC50 (P. yoelii EEF) was 0.16 ± 0.02 nM and the IC50 [1] was 0.25 ± 0.06 nM.

In the case of `CC[C@@H](C(=O)[C@@H](C)[C@@H](O)[C@H](C)CCc1ccc(C)c(O)c1C(=O)O)[C@H]1O[C@](CC)([C@H]2CC[C@](O)(CC)[C@H](C)O2)C[C@@H]1C` [Lasalocid], the IC50 (HepG2-A16-CD81EGFP cells) is reported as 3900 ± 1400 nM, the “efficacy” value (P. yoelii EEF; 1 μM) is reported as “remained active later in EEF development” and the Median parasite area (P. yoelii EEF; 1 μM) is reported as under 9 μm^2. For the same compound, the Median parasite area (P. yoelii EEF; 10 μM) was under 9 μm^2, the “activity against EEFs (in words)” value (P. yoelii EEF) was “confirmed as active” and the IC50 (P. yoelii EEF) was 37 ± 20 nM. The IC50 [1] was 50 ± 8 nM.

In the case of `OC(c1cc(C(F)(F)F)nc2c(C(F)(F)F)cccc12)C1CCCCN1` (stereo not shown) [Mefloquine], the IC50 (HepG2-A16-CD81EGFP cells) is reported as 3100 ± 600 nM, the Median parasite area (P. yoelii EEF; 1 μM) is reported as 65.4±4.7 μm^2 and the Median parasite area (P. yoelii EEF; 10 μM) is reported as under 9 μm^2. For the same compound, the “activity against EEFs (in words)” value (P. yoelii EEF) was “marginal activity”, the IC50 (P. yoelii EEF) was 3270 nM and the IC50 [1] was 9.5 ± 10 nM.

In the case of `C[C@H]1Cc2c([nH]c3cc(Cl)c(F)cc23)[C@@]2(N1)C(=O)Nc1ccc(Cl)cc12` [NITD609], the “cure in a blood-stage animal model” value (Plasmodium berghei [3]) is given as “fully curative”, the “Average Survival (%)” value (P. berghei sporozoites; [9]) is given as 0% and the “Prepatent Period” value (P. berghei sporozoites; [9]) is given as 4.5 days. The “Average Survival (%)” value (P. berghei sporozoites; [10]) was 0%, the “Prepatent Period” value (P. berghei sporozoites; [10]) was 4.2 days and the “activity against EEFs (in words)” value (P. yoelii EEF) was “inactive”. For the same compound, the “potency against P. falciparum blood stages” value [4] was ~ 1 nM.

For `CO[C@@H]1C(=O)CC[C@]2(CO2)[C@@]1(O)[C@@]1(C)O[C@@H]1CC=C(C)C` [Ovalicin], the IC50 (HepG2-A16-CD81EGFP cells) was over 10000 nM, the Median parasite area (P. yoelii EEF; 1 μM) was 35.1±3.1 μm^2 and the Median parasite area (P. yoelii EEF; 10 μM) was 19.1±0.9 μm^2. The “effect on the infection ratio” value (P. yoelii EEF; Fig. 1E) was “no drug effect is seen; also recorded: no measurable effect”, the “activity against EEFs (in words)” value (P. yoelii EEF) was “confirmed as active” and the IC50 (P. yoelii EEF) was 0.7 ± 0.3 nM. For the same compound, the IC50 [1] was over 10000 nM.

With `COc1cc(NC(C)CCCN)c2ncccc2c1` (stereo not shown) [Primaquine] the IC50 (HepG2-A16-CD81EGFP cells) was 6100 ± 1900 nM, the Median parasite area (P. yoelii EEF; 1 μM) was 56.8±15.6 μm^2 and the Median parasite area (P. yoelii EEF; 10 μM) was under 9 μm^2. For the same compound, the “activity against EEFs (in words)” value (P. yoelii EEF) was “confirmed as active”, the IC50 (P. yoelii EEF) was 1160 nM and the IC50 [1] was 317 ± 60 nM.

In the case of `CCc1nc(N)nc(N)c1-c1ccc(Cl)cc1` [Pyrimethamine], the IC50 (HepG2-A16-CD81EGFP cells) is reported as 6300 ± 3300 nM, the “efficacy” value (P. yoelii EEF; 1 μM) is reported as “the parasites grew to normal size” and the Median parasite area (P. yoelii EEF; 1 μM) is reported as 31.1±0.7 μm^2. The Median parasite area (P. yoelii EEF; 10 μM) was 29.6±2.0 μm^2, the “activity against EEFs (in words)” value (P. yoelii EEF) was “confirmed as active” and the IC50 (P. yoelii EEF) was 2.4 ± 1.6 nM. The IC50 [1] was 15 ± 2 nM.

Work on `C[C@H]1[C@H](OC(=O)CCC(=O)O)O[C@@H]2O[C@@]3(C)CC[C@H]4[C@H](C)CC[C@@H]1[C@@]24OO3` [artesunate] yielded an average survival times (Plasmodium berghei [2]) of 7 days.

In the case of GNF179, the “clearance CL” value ([5]; in vivo) is reported as 22 mL/min/kg, the “clearance as share of hepatic blood flow in mice” value ([5]; in vivo) is reported as ~ 25% and the “residence time MRT” value ([5]; in vivo) is reported as 9 h. The “steady-state volume of distribution Vss” value ([5]; in vivo) was 11.8 L/kg, the “terminal half-life t1/2” value ([5]; in vivo) was 8.9 h and the “in vivo oral bioavailability” value ([5]; po) was 58%. For the same compound, the cross-resistance [6] was “no cross-resistance”, the “Average Survival (%)” value (P. berghei sporozoites; [11]) was 20% and the “Prepatent Period” value (P. berghei sporozoites; [11]) was 4.2 days. The “Average Survival (%)” value (P. berghei sporozoites; [9]) was 100%, the “Average Survival (%)” value (P. berghei sporozoites; [12]) was 80% and the “Prepatent Period” value (P. berghei sporozoites; [12]) was 6.2 days. For the same compound, the “Average Survival (%)” value (P. berghei sporozoites; 20 p.o. mg/kg, 1–3 hours prior to sporozoite injection) was 100%, the “blood stage parasitemia in later blood smear examinations” value (P. berghei sporozoites) was “no blood stage parasitemia was detected” and the “in vivo bioluminescence signal of developing parasite” value (P. berghei sporozoites) was “No luminescence signal was detected”. The “efficacy” value (P. yoelii EEF; 1 μM) was “remained active later in EEF development”, the “mouse survival prolonged by an average of” value (Plasmodium berghei [2]; single 100 mg/kg oral dose) was 19 days and the “reduction of Plasmodium berghei parasitemia levels” value (Plasmodium berghei [2]; single 100 mg/kg oral dose, mice) was 99.7%. The “inhibition of parasite protein biosynthesis” value [7] was “does not rapidly inhibit parasite protein biosynthesis”, the Cmax ([8]; 15 mg/kg) was 55 µM and the Cmax ([8]; 100 mg/kg) was 193 µM. The half-life in liver ([8]; 100 mg/kg) was 7 to 9 h and the “potency against P. falciparum blood stages” value [4] was 7 nM.
